These results are taken from ChEMBL document CHEMBL4765290, “Design, synthesis and biological evaluation of novel dual-acting modulators targeting both estrogen receptor α (ERα) and lysine-specific demethylase 1 (LSD1) for treatment of breast cancer” (Eur J Med Chem, 2020).

Assay [1] concerns the target Lysine-specific histone demethylase 1A (Homo sapiens, UniProt O60341).
Description: Inhibition of LSD1 (unknown origin) incubated for 90 mins by fluorescence based assay
Assay [2] has as its system MCF7. Put plainly: cells. Particulars: Homo sapiens, MCF7, 72 h.
Description: Antiproliferative activity against human MCF7 cells assessed as reduction in cell viability after 72 hrs by MTT assay
Assay [3] deals with MCF7. The experiment in a line: Induction of apoptosis in human MCF7 cells assessed as viable cells at 5 uM incubated for 24 hrs by AnnexinV-FITC and propidium iodide staining based flow cytometry analysis (reference value: 87.12 %). The following applies: read-out: Activity. The format is functional. Background: Flow cytometry measures light scatter and fluorescence of single cells or particles in a stream.

The subject of assay [4] is MCF7. The experiment in a line: Induction of apoptosis in human MCF7 cells assessed as early apoptotic cells at 5 uM incubated for 24 hrs by AnnexinV-FITC and propidium iodide staining based flow cytometry analysis (reference value: 3.08 %). The format is functional.
The subject of assay [5] is MCF7. Put plainly: Induction of apoptosis in human MCF7 cells assessed as late apoptotic cells at 5 uM incubated for 24 hrs by AnnexinV-FITC and propidium iodide staining based flow cytometry analysis (reference value: 7.15 %). The format is functional.
Assay [6] deals with MCF7. Put plainly: Induction of apoptosis in human MCF7 cells assessed as necrotic cells at 5 uM incubated for 24 hrs by AnnexinV-FITC and propidium iodide staining based flow cytometry analysis (reference value: 2.35 %). The format is functional.
The subject of assay [7] is MCF7. The experiment in a line: Induction of apoptosis in human MCF7 cells assessed as viable cells at 10 uM incubated for 24 hrs by AnnexinV-FITC and propidium iodide staining based flow cytometry analysis (reference value: 87.12 %). The following applies: read-out: Activity. The assay is classed as functional.
The test system of assay [8] is MCF7. Put plainly: Induction of apoptosis in human MCF7 cells assessed as early apoptotic cells at 10 uM incubated for 24 hrs by AnnexinV-FITC and propidium iodide staining based flow cytometry analysis (reference value: 3.08 %). The assay is classed as functional.
Assay [9] relates to MCF7. Put plainly: Induction of apoptosis in human MCF7 cells assessed as late apoptotic cells at 10 uM incubated for 24 hrs by AnnexinV-FITC and propidium iodide staining based flow cytometry analysis (reference value: 7.15 %). The assay is classed as functional.
Assay [10] concerns MCF7. Put plainly: Induction of apoptosis in human MCF7 cells assessed as necrotic cells at 10 uM incubated for 24 hrs by AnnexinV-FITC and propidium iodide staining based flow cytometry analysis (reference value: 2.35 %). The format is functional.
Assay [11] relates to MCF7. The experiment in a line: Induction of apoptosis in human MCF7 cells assessed as viable cells at 30 uM incubated for 24 hrs by AnnexinV-FITC and propidium iodide staining based flow cytometry analysis (reference value: 87.12 %). Particulars: read-out: Activity. The format is functional.
Assay [12] deals with MCF7. Put plainly: Induction of apoptosis in human MCF7 cells assessed as early apoptotic cells at 30 uM incubated for 24 hrs by AnnexinV-FITC and propidium iodide staining based flow cytometry analysis (reference value: 3.08 %). The assay is classed as functional.
For assay [13], the system named is MCF7. The experiment in a line: Induction of apoptosis in human MCF7 cells assessed as late apoptotic cells at 30 uM incubated for 24 hrs by AnnexinV-FITC and propidium iodide staining based flow cytometry analysis (reference value: 7.15 %). The format is functional.
Assay [14] concerns MCF7. The experiment in a line: Induction of apoptosis in human MCF7 cells assessed as necrotic cells at 30 uM incubated for 24 hrs by AnnexinV-FITC and propidium iodide staining based flow cytometry analysis (reference value: 2.35 %). The assay is classed as functional.

In the case of `O=S(=O)(Oc1ccc2ccccc2c1)C1CC2OC1C(c1ccc(O)cc1)=C2c1ccc(O)cc1` (stereo unspecified), the figures for the IC50 (in assay [1]; with MCF7 [2]) were 15.1 µM and 4.11 µM, respectively.

For `O=S(=O)(Oc1cccc(Br)n1)C1CC2OC1C(c1ccc(O)cc1)=C2c1ccc(O)cc1` (stereo unspecified), the IC50 turned out to be 5.92 µM in [1] and 7.9 µM in the assay on MCF7 [2].

In the case of `Cc1cccc(NC(=O)C2CC3OC2C(c2ccc(O)cc2)=C3c2ccc(O)cc2)c1` (stereo unspecified), the IC50 in [1] was over 50 µM; with MCF7 [2] it was 44.5 µM.

With `CCOC(=O)c1ccc(NS(=O)(=O)C2CC3OC2C(c2ccc(O)cc2)=C3c2ccc(O)cc2)cc1` (stereo unspecified), the IC50 in [1] was over 50 µM; with MCF7 [2], 18.8 µM.

On to `O=C(NCc1ccc2c(c1)OCO2)C1CC2OC1C(c1ccc(O)cc1)=C2c1ccc(O)cc1` (stereo unspecified), for which the IC50 in assay [1] was over 50 µM; with MCF7 [2], 35.2 µM.

Regarding `O=S(=O)(Oc1cccc(Cl)n1)C1CC2OC1C(c1ccc(O)cc1)=C2c1ccc(O)cc1` (stereo unspecified), the IC50 is 4.08 µM in [1] and 10.2 µM in the assay on MCF7 [2].

Regarding `O=C(Oc1cccnc1Cl)C1CC2OC1C(c1ccc(O)cc1)=C2c1ccc(O)cc1` (stereo unspecified), the IC50 amounted to 17.4 µM in assay [1] and 38.2 µM in the assay on MCF7 [2].

As to `O=S(=O)(Oc1cccnc1Cl)C1CC2OC1C(c1ccc(O)cc1)=C2c1ccc(O)cc1` (stereo unspecified), the IC50 in [1] worked out at 7.13 µM; with MCF7 [2], 30.2 µM.

In the case of `Cc1cc(=O)oc2cc(OS(=O)(=O)C3CC4OC3C(c3ccc(O)cc3)=C4c3ccc(O)cc3)ccc12` (stereo unspecified), the IC50 in [1] amounted to 13.7 µM; in the assay on MCF7 [2], 38.3 µM.

As for `O=S(=O)(Oc1cncc(Cl)c1)C1CC2OC1C(c1ccc(O)cc1)=C2c1ccc(O)cc1` (stereo unspecified), the IC50 in assay [1] was over 50 µM; with MCF7 [2] it was 49.4 µM.

Turning to `O=S(=O)(Oc1cccc2ccccc12)C1CC2OC1C(c1ccc(O)cc1)=C2c1ccc(O)cc1` (stereo unspecified), the figures for the IC50 (in [1]; in the assay with MCF7 [2]) were over 50 µM and 37.7 µM, respectively.

Consider `O=c1cc(C(F)(F)F)c2ccc(OS(=O)(=O)C3CC4OC3C(c3ccc(O)cc3)=C4c3ccc(O)cc3)cc2o1` (stereo unspecified), for which the IC50 in [1] is over 50 µM; in the assay on MCF7 [2] it was 12.5 µM.

On to `O=S(=O)(Oc1cccc(F)n1)C1CC2OC1C(c1ccc(O)cc1)=C2c1ccc(O)cc1` (stereo unspecified), for which, in the assay with MCF7 [3], the viability at 5 µM is 84.7%. Besides, the Activity was 4.62% in the assay with MCF7 [4]; 8.57% in the assay on MCF7 [5]; 2.08% in the assay with MCF7 [6]; 7.1% in the assay with MCF7 [8]; 11.03% in the assay on MCF7 [9]; 2.21% in the assay with MCF7 [10]. Further, the Activity is listed as 13.74% with MCF7 [12], 23.57% in the assay on MCF7 [13] and 5.79% with MCF7 [14]. For the same compound, the viability at 10 µM with MCF7 [7] came to 79.7%. For the same compound, the viability at 30 µM with MCF7 [11] came to 56.9%. The values for the IC50 (in [1]; in the assay on MCF7 [2]) were 1.55 µM and 8.79 µM, respectively.

On to `O=S(=O)(Oc1cccnc1Br)C1CC2OC1C(c1ccc(O)cc1)=C2c1ccc(O)cc1` (stereo unspecified), for which the concentration for half-maximal inhibition (IC50) came out at 12.3 µM in assay [1] and 7.84 µM with MCF7 [2].

`O=S(=O)(Oc1cccc2cccnc12)C1CC2OC1C(c1ccc(O)cc1)=C2c1ccc(O)cc1` (stereo unspecified): the half-inhibitory concentration (IC50) is over 50 µM in assay [1] and 16.7 µM with MCF7 [2].

As for `O=S(=O)(Oc1ccc(-c2ccccc2)cc1)C1CC2OC1C(c1ccc(O)cc1)=C2c1ccc(O)cc1` (stereo unspecified), the IC50 in assay [1] is over 50 µM; in the assay with MCF7 [2], 4.1 µM.

With `COC(=O)c1ccccc1NS(=O)(=O)C1CC2OC1C(c1ccc(O)cc1)=C2c1ccc(O)cc1` (stereo unspecified), the IC50 in assay [1] was found to be 30 µM; in the assay with MCF7 [2], 30.5 µM.

Take `COC(=O)c1ccc(NS(=O)(=O)C2CC3OC2C(c2ccc(O)cc2)=C3c2ccc(O)cc2)cc1` (stereo unspecified): the IC50 in [1] worked out at 13.2 µM; in the assay on MCF7 [2], 15.1 µM.

Consider `O=C(Oc1cccnc1Br)C1CC2OC1C(c1ccc(O)cc1)=C2c1ccc(O)cc1` (stereo unspecified), for which the half-inhibitory concentration (IC50) in assay [1] was over 50 µM; in the assay on MCF7 [2], 84 µM.

As for `Cc1cccc(NC(=O)C2CC3OC2C(c2ccc(O)cc2)=C3c2ccc(O)cc2)n1` (stereo unspecified), the IC50 was over 50 µM in assay [1] and 26.2 µM in the assay on MCF7 [2].

In [1], `CC/C(=C(\c1ccc(O)cc1)c1ccc(OCCN(C)C)cc1)c1ccccc1` [AFIMOXIFENE] showed an IC50 of over 50 µM.

On to `O=C(NC1CC1)C1CC2OC1C(c1ccc(O)cc1)=C2c1ccc(O)cc1` (stereo unspecified), for which the IC50 in assay [1] is over 50 µM; in the assay on MCF7 [2], over 100 µM.

In the case of `O=S(=O)(Oc1cncc(F)c1)C1CC2OC1C(c1ccc(O)cc1)=C2c1ccc(O)cc1` (stereo unspecified), the IC50 was 18.3 µM in assay [1] and 13.8 µM in the assay on MCF7 [2].

As for `O=S(=O)(Oc1cncc(Br)c1)C1CC2OC1C(c1ccc(O)cc1)=C2c1ccc(O)cc1` (stereo unspecified), the IC50 in assay [1] is over 50 µM; with MCF7 [2] it was 16.4 µM.

Consider `O=S(=O)(Oc1ccccc1)C1CC2OC1C(c1ccc(O)cc1)=C2c1ccc(O)cc1` (stereo unspecified), for which the IC50 in [1] is over 50 µM; in the assay with MCF7 [2] it was 28.7 µM.

As a reminder, the IC50 is the midpoint of a concentration-inhibition curve.
